Non-standard residues stand in square brackets, D forms with d. Residues, ends and D or L forms follow the SMILES beside them. No end group written: not given here. pGlu = O=C1CC[C@@H](C(=O)O)N1
What was measured:
pancreatic β-cells = assay: insulin releasing activity (potentiation of the insulin releasing activity of glucose); conditions: qualitative ranking among the compounds prepared
[1] = reported in the literature; cited from earlier work

Compound	activity (insulin releasing) (pancreatic β-cells)	hyperglycaemic and hyperinsulinaemic activity [1]
O=C(O)CNC(=O)[C@H](CC(=O)O)NC(=O)[C@H](CC(=O)O)NC(=O)[C@@H]1CCC(=O)N1 [p-Glu-Asp-Asp-Gly, H-L-(PYRO) GLUTAMYL-L-ASPARTYL-L-ASPARTYL-GLYCINE] (HELM PEPTIDE1{[Glp].D.D.G}$$$$V2.0)	Especially active	
NC(=O)CC[C@H](NC(=O)[C@@H]1CCC(=O)N1)C(=O)N[C@@H](CC(=O)O)C(=O)NCC(=O)O [p-Glu-Gln-Asp-Gly, H-L-(PYRO) GLUTAMYL-L-GLUTAMINYL-L-ASPARTYL-GLYCINE] (HELM PEPTIDE1{[Glp].Q.D.G}$$$$V2.0)	most active	
O=C(O)CC[C@H](NC(=O)[C@@H]1CCC(=O)N1)C(=O)N[C@@H](CC(=O)O)C(=O)NCC(=O)O [p-Glu-Glu-Asp-Gly, H-L-(PYRO) GLUTAMYL-L-GLUTAMYL-L-ASPARTYL-GLYCINE] (HELM PEPTIDE1{[Glp].E.D.G}$$$$V2.0)	Especially active	
[pGlu]SDG		hyperglycaemic and hyperinsulinaemic activity

— patent US4596790A, “Peptides for the treatment of hyperglycaemia” (Nyegaard & Co. A/S, priority 1983, dated 1986)
